Experimental findings from patent US20110313156A1 (BOEHRINGER INGELHEIM INTERNATIONAL GMBH, priority 2008, published 2011) are described below.

The target of the first test is T1, His6-PDK1 (aa 52-556) (Homo sapiens, UniProt O15530).
T1 construct: 15 μL His6-PDK1 (aa 52-556) 3.33 ng/well); host or cells: baculovirus-infected insect cells
T1 sequence (O15530 52-556): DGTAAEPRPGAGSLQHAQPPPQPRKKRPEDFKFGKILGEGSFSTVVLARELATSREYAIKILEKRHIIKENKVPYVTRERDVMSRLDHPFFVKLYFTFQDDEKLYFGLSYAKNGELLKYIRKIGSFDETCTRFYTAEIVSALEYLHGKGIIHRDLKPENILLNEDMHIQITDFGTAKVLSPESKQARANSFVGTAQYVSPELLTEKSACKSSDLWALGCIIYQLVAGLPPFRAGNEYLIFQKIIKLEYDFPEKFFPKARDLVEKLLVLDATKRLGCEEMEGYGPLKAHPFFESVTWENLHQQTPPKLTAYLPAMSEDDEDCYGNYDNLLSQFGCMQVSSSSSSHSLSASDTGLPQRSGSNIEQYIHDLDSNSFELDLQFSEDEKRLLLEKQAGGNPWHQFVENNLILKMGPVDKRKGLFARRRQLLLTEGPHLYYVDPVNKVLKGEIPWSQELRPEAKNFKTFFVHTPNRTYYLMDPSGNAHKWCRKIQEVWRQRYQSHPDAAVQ
Description: PDK1 kinase assay III (with Tween 20). In kind it is biochemical. As to conditions: compound at 10 μM; PDK1 kinase assay III (values without asterisk); read-out: % CTL (residual activity of the enzyme relative to DMSO control). In a few lines: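 Started with ATP, incubated 90 min at ambient temperature, then stopped with phosphoric acid. Asterisked values come from assay II (24 h or 5 min incubation).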
Turning to `CN(C)Cc1ccc(Nc2ncc3cc(C#CCNC(=O)c4nccn(Cc5ccc(F)c(F)c5)c4=O)ccc3n2)cc1` [III-17, 4-(3,4-difluorobenzyl)-N-{3-[2-({4-[(dimethylamino)methyl]phenyl}amino)quinazolin-6-yl]prop-2-yn-1-yl}-3-oxo-3,4-dihydropyrazine-2-carboxamide], the remaining activity at 10 µM was 13.7%. Consider `NCCOc1cc(C#CCNC(=O)c2cncn(Cc3ccc(F)c(F)c3)c2=O)cc2cnc(Nc3ccccc3)nc12`, for which the remaining activity at 10 µM worked out at 13.7%.

Consider `CN1CCC(N(C)c2ccc(Nc3ncc4cc(/C=C/CNC(=O)c5ccnn(Cc6ccc(F)c(F)c6)c5=O)ccc4n3)cc2)CC1` [IV-52, 2-(3,4-difluorobenzyl)-N-{(2E)-3-[2-({4-[methyl(1-methylpiperidin-4-yl)amino]-phenyl}amino)quinazolin-6-yl]prop-2-en-1-yl}-3-oxo-2,3-dihydropyridazine-4-carboxamide], for which the remaining activity at 10 µM is 17.2%.

Turning to `CN1CCC(NC(=O)c2ccc(Nc3ncc4cc(/C=C/CNC(=O)c5cncn(Cc6ccc(F)c(F)c6)c5=O)ccc4n3)cc2Cl)CC1`, the remaining activity at 10 µM stood at 22.4%.

Turning to `Cc1c(C(=O)NCC#Cc2ccc3nc(Nc4ccc(C#N)cc4)ncc3c2)c(=O)n(Cc2ccc(F)c(F)c2)n1C` [III-45, N-(3-{2-[(4-cyanophenyl)amino]quinazolin-6-yl}prop-2-yn-1-yl)-2-(3,4-difluorobenzyl)-1,5-dimethyl-3-oxo-2,3-dihydro-1H-pyrazole-4-carboxamide], the remaining activity at 10 µM was determined as 19.8%. For the molecule `O=C1Nc2cc(/C=C/CNC(=O)C3CCN(Cc4ccc(F)c(F)c4)C3=O)ccc2/C1=C/c1cnc[nH]1` (centres unmarked) [I-11, 1-(3,4-difluorobenzyl)-N-{(2E)-3-[(3Z)-3-(1H-imidazol-5-ylmethylidene)-2-oxo-2,3-dihydro-1H-indol-6-yl]prop-2-en-1-yl}-2-oxopyrrolidine-3-carboxamide], the remaining activity at 10 µM came out at 21.7%. On the same count and under the same terms, to `CN(C)Cc1ccc(Nc2ncc3cc(/C=C/CNC(=O)c4nc(Cl)cn(Cc5ccc(F)c(F)c5)c4=O)ccc3n2)cc1` [IV-61, 6-chloro-4-(3,4-difluorobenzyl)-N-{(2E)-3-[2-({4-[(dimethylamino)methyl]phenyl}amino)quinazolin-6-yl]prop-2-en-1-yl}-3-oxo-3,4-dihydropyrazine-2-carboxamide] belongs 13.9%. Still for that read-out and setting: under `O=C(NC/C=C/c1ccc2nc(Nc3ccncc3)ncc2c1)c1cncn(Cc2ccc(F)c(F)c2)c1=O` stands 12.1%; under `Cc1c(/C=C/CNC(=O)c2c(C)n(C)n(Cc3ccc(F)c(F)c3)c2=O)c(=O)n(C(C)C)c2nc(Nc3ccc(N4CCOCC4)cc3)ncc12` [IV-37, 2-(3,4-difluorobenzyl)-1,5-dimethyl-N-{(2E)-3-[5-methyl-2-{[4-(morpholin-4-yl)phenyl]amino}-7-oxo-8-(propane-2-yl)-7,8-dihydropyrido[2,3-c]pyrimidin-6-yl]prop-2-en-1-yl}-3-oxo-2,3-dihydro-1H-pyrazole-4-carboxamide], 15.4%. Still for that read-out and setting: to `COC(=O)c1ccc(Nc2ncc3cc(/C=C/CNC(=O)c4cncn(Cc5ccc(F)c(F)c5)c4=O)ccc3n2)cc1Cl` belongs 22.5%; to `N#Cc1ccc(Nc2ncc3cc(C#CCNC(=O)c4cncn(Cc5ccc(F)c(F)c5)c4=O)ccc3n2)cc1` [III-44, N-(3-{2-[(4-cyanophenyl)amino]quinazolin-6-yl}prop-2-yn-1-yl)-1-(3,4-difluorobenzyl)-6-oxo-1,6-dihydropyrimidine-5-carboxamide], 30.4%.

Regarding `O=C(NCCO)c1ccc(Nc2ncc3cc(C#CCNC(=O)c4cncn(Cc5ccc(F)c(F)c5)c4=O)ccc3n2)cc1` [III-115], the remaining activity at 10 µM worked out at 13.5%. Still for that read-out and setting: to `Cc1c(C(=O)NC/C=C/c2cc(OC3CCNC3)c3nc(Nc4ccc(N5CCOCC5)cc4)ncc3c2)c(=O)n(Cc2ccc(F)c(F)c2)n1C` (centres unmarked) belongs 10.3%. With `O=C1Nc2cc(/C=C/CNC(=O)c3cncn(Cc4ccc(F)c(F)c4)c3=O)ccc2/C1=C/c1ccc[nH]1` [I-1, 1-(3,4-difluorobenzyl)-6-oxo-N-{(2E)-3-[(3Z)-2-oxo-3-(1H-pyrrol-2-ylmethylidene)-2,3-dihydro-1H-indol-6-yl]prop-2-en-1-yl}-1,6-dihydropyrimidine-5-carboxamide], the remaining activity at 10 µM was found to be 18.1%. The same measure, in the same setting: to `COc1cc(Nc2ncc3cc(C#CCNC(=O)c4c(C)n(C)n(Cc5ccc(F)c(F)c5)c4=O)ccc3n2)ccc1C(=O)NC1CCN(C)CC1` belongs 15%. Still for that read-out and setting: under `CN(C)Cc1ccc(Nc2ncc3cc(N4CC(NC(=O)c5cncn(Cc6ccc(F)c(F)c6)c5=O)C4)ccc3n2)cc1` [IV-31, 1-(3,4-difluorobenzyl)-N-{1-[2-({4-[(dimethylamino)methyl]phenyl}amino)quinazolin-6-yl]azetidin-3-yl}-6-oxo-1,6-dihydropyrimidine-5-carboxamide] stands 20.2%; under `CN1CCC(Nc2ccc(Nc3ncc4cc(/C=C/CNC(=O)c5cn(C)c(=O)n(Cc6ccc(F)c(F)c6)c5=O)ccc4n3)cc2F)CC1` [IV-43, 3-(3,4-difluorobenzyl)-N-{(2E)-3-[2-({3-fluoro-4-[(1-methylpiperidin-4-yl)amino]-phenyl}amino)quinazolin-6-yl]prop-2-en-1-yl}-1-methyl-2,4-dioxo-1,2,3,4-tetrahydro-pyrimidine-5-carboxamide], 17.3%. On the same count and under the same terms, to `Cc1c(C(=O)NCC#Cc2ccc3nc(Nc4ccc(C(=O)NC5CCN(C6CC6)CC5)cc4)ncc3c2)c(=O)n(Cc2ccc(F)c(F)c2)n1C` belongs 11.6%; to `COCCNC(=O)c1ccc(Nc2ncc3cc(C#CCNC(=O)c4c(C)n(C)n(Cc5ccc(F)c(F)c5)c4=O)ccc3n2)cc1`, 20.1%; to `O=C(NC/C=C/c1ccc2nc(Nc3ccccn3)ncc2c1)c1cncn(Cc2ccc(F)c(F)c2)c1=O`, 18.4%. Regarding `NCCOc1cc(/C=C/CNC(=O)c2cncn(Cc3ccc(F)c(F)c3)c2=O)cc2cnc(Nc3ccc(N4CCOCC4)cc3)nc12`, the remaining activity at 10 µM turned out to be 10.1%. As for `Cc1c(C(=O)NCC#Cc2ccc3c(-c4ccc(CN(C)C)cc4)n[nH]c3c2)c(=O)n(Cc2ccc(F)c(F)c2)n1C` [II-8, 2-(3,4-difluorobenzyl)-N-[3-(3-{4-[(dimethylamino)methyl]phenyl}-1H-indazol-6-yl)prop-2-yn-1-yl]-1,5-dimethyl-3-oxo-2,3-dihydro-1H-pyrazole-4-carboxamide], the remaining activity at 10 µM was determined as 16.5%. Still for that read-out and setting: under `O=C(NCC#Cc1ccc2cn[nH]c2c1)c1cncn(Cc2ccc(F)c(F)c2)c1=O` [II-2, 1-(3,4-difluorobenzyl)-N-[3-(1H-indazol-6-yl)prop-2-yn-1-yl]-6-oxo-1,6-dihydropyrimidine-5-carboxamide] stands 12.5%; under `Cc1c(C(=O)NCC#Cc2ccc3c(-c4ccco4)n[nH]c3c2)c(=O)n(Cc2ccc(F)c(F)c2)n1C` [II-5, 2-(3,4-difluorobenzyl)-N-{3-[3-(furan-2-yl)-1H-indazol-6-yl]prop-2-yn-1-yl}-1,5-dimethyl-3-oxo-2,3-dihydro-1H-pyrazole-4-carboxamide], 22.7%. On the same count and under the same terms, under `Cc1c(C(=O)NC/C=C/c2ccc3nc(Nc4ccc(C(=O)N(C)C5CCN(C)CC5)c(F)c4)ncc3c2)c(=O)n(Cc2ccc(F)c(F)c2)n1C` stands 13.7%.

The same test, now with this note: read-out: % CTL (residual activity of the enzyme relative to DMSO control).
With `Cc1c(C(=O)NC/C=C/c2ccc3nc(NC(C)C)ncc3c2)c(=O)n(Cc2ccc(F)c(F)c2)n1C` [IV-92], the remaining activity at 10 µM is 21.6%.
